Counter-ions that a name gives are not always drawn.
These molecules were tested against MC4R (Homo sapiens, UniProt P32245) (assay: β-arrestin assay (Pathhunter eXpress β-arrestin U2OS cell line)). Settings: U2OS cells, PK-tagged MC4R and EA-tagged β-arrestin, 37° C. for 90 minutes.
Assay type: cell-based
Set-up: expressed in transfected cells; host or cells: U2OS (Pathhunter eXpress β-arrestin cell line)
Excerpt: The melanocortin receptor is a type of G-protein coupled receptor (GPCR) and regulates various physiological responses by transducing signals from many neurotransmitters. When GPCR is phosphorylated, β-arrestin is bound to the phosphorylated part of the receptor and plays an important role in activating various signaling pathways in cells through interaction with other proteins. It is known that, when the melanocortin receptor interacts with an agonist, β-arrestin is mobilized and is involved in the β-arrestin-mediated signaling pathway. Therefore, the activity of the melanocortin receptor can be evaluated through the measurement of β-arrestin.
A Pathhunter eXpress β-arrestin cell line (U2OS cell line) in which Prolink (PK)-tagged MC1R, MC3R, MC4R, MC5R and Enzyme acceptor (EA)-tagged β-arrestin were expressed together was established. When the MCR-PK portion of this cell line is activated, β-arrestin-EA is mobilized, and enzyme acceptor (EA) and Prolink (PK), which are the β-galactosidase enzyme fragments, interact. The activated enzyme hydrolyzes the substrate by β-galactosidase activity to produce a chemiluminescent signal, so that the activity can be measured. After the Pathhunter eXpress β-arrestin cell line (U2OS cell line) was incubated, the cells were inoculated into each well of the cell culture plate and incubated for 48 hours in a 37° C. incubator in the presence of 5% CO2. After the incubation, 5 μl of the sample diluted 5 times with buffer was added, the vehicle concentration was set to 1%, and the MC4R agonist compound diluted at each step concentration was added, followed by reaction at 37° C. for 90 minutes. The activity (%) of each agonist compound is expressed as 100% ×(average RLU value of sample−average RLU value of vehicle control)/(average maximum value of control ligand−average RLU value of vehicle control), and the value was analyzed by CBIS data analysis suite (ChemInnovation, CA).

Sequence of MC4R (P32245 whole entry, species assumed): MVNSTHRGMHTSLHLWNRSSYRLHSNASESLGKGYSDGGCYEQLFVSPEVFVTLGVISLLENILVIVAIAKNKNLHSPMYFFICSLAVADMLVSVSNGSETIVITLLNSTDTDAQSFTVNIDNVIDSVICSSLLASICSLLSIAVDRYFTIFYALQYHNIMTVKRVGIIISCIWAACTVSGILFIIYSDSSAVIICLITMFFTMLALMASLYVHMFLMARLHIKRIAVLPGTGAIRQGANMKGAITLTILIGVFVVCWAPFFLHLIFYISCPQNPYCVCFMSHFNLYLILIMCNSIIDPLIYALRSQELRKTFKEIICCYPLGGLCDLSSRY
Sequence of MC4R (P32121 whole entry partner, species assumed): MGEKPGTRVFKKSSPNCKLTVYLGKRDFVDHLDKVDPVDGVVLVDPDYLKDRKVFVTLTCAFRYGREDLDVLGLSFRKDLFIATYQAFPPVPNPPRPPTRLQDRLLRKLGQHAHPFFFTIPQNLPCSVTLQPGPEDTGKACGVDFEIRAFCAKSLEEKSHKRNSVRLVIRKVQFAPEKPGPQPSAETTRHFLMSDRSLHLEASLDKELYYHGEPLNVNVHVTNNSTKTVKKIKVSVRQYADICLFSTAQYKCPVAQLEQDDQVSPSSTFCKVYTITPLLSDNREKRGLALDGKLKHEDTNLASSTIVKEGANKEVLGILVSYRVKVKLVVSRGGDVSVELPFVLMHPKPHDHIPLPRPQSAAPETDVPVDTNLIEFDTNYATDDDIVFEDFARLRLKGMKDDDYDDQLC

Structure (SMILES) | EC50 [nM]
CC(C)C(=O)N([C@H]1C[C@@H](C(=O)N2CCOCC2)N(C(=O)[C@@H]2CN(C(C)(C)C)C[C@H]2c2ccc(F)cc2F)C1)[C@H]1CC[C@@H](C)CC1 [Example 2, N-((3S,5S)-1-((3S,4R)-1-(tert-butyl)-4-(2,4-difluorophenyl)pyrrolidine-3-carbonyl)-5-(morpholine-4-carbonyl)pyrrolidin-3-yl)-N-((1s,4R)-4-methylcyclohexyl)isobutyramide hydrochloride] | 15
CC1(C)CCC(N(C(=O)C(C)(C)C)[C@H]2C[C@@H](C(=O)N3CCOCC3)N(C(=O)[C@@H]3CN(C(C)(C)C)C[C@H]3c3ccc(Cl)cc3)C2)CC1 [Example 6, N-((3S,5S)-1-((3S,4R)-1-(tert-butyl)-4-(4-chlorophenyl)pyrrolidine-3-carbonyl)-5-(morpholine-4-carbonyl)pyrrolidin-3-yl)-N-(4,4-dimethylcyclohexyl)pivalamide hydrochloride] | 13
CC(C)C(=O)N([C@H]1C[C@@H](C(=O)N2CCOCC2)N(C(=O)[C@@H]2CN(C(C)(C)C)C[C@H]2c2ccc(Cl)cc2F)C1)[C@H]1CC[C@@H](C)CC1 [Example 3, N-((3S,5S)-1-((3S,4R)-1-(tert-butyl)-4-(4-chloro-2-fluorophenyl)pyrrolidine-3-carbonyl)-5-(morpholine-4-carbonyl)pyrrolidin-3-yl)-N-((1s,4R)-4-methylcyclohexyl)isobutyramide hydrochloride] | 4.5

More lines, in order of falling EC50, values ahead:

EC50 [nM] | Structure (SMILES)
8.02 | CC(C)(C)C(=O)N([C@H]1C[C@@H](C(=O)N2CCOCC2)N(C(=O)[C@@H]2CN(C(C)(C)C)C[C@H]2c2ccc(F)cc2F)C1)[C@H]1CC[C@@H](C)CC1 [Example 1, N-((3S,5S)-1-((3S,4R)-1-(tert-butyl)-4-(2,4-difluorophenyl)pyrrolidine-3-carbonyl)-5-(morpholine-4-carbonyl)pyrrolidin-3-yl)-N-((1s,4R)-4-methylcyclohexyl)pivalamide hydrochloride]
4.2 | CC(C)(C)C(=O)N([C@H]1C[C@@H](C(=O)N2CCOCC2)N(C(=O)[C@@H]2CN(C(C)(C)C)C[C@H]2c2ccc(Cl)cc2F)C1)[C@H]1CC[C@@H](C)CC1 [Example 4, N-((3S,5S)-1-((3S,4R)-1-(tert-butyl)-4-(4-chloro-2-fluorophenyl)pyrrolidine-3-carbonyl)-5-(morpholine-4-carbonyl)pyrrolidin-3-yl)-N-((1s,4R)-4-methylcyclohexyl)pivalamide hydrochloride]

— US20240190856A1, “MELANOCORTIN-4 RECEPTOR AGONIST” (LG CHEM, LTD., priority 2021, published 2024)
